Data reported in the supplement of paper PMC10307832.

How the values were obtained:
Test in all cases: relative viability (nuclei count vs DMSO), 5 days (fraction); higher = more cells survive
Bemcentinib + Trametinib = compound: Nc1nc(Nc2ccc3c(c2)CC[C@@H](N2CCCC2)CC3)nn1-c1cc2c(nn1)-c1ccccc1CCC2 [Bemcentinib] + CC(=O)Nc1cccc(-n2c(=O)n(C3CC3)c(=O)c3c(Nc4ccc(I)cc4F)n(C)c(=O)c(C)c32)c1 [Trametinib] (partner 0.02 µM)
Method in brief: (§1)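 Lung cancer cell lines in 1536-well plates got either a single drug or a fixed anchor-drug dose together with five library-drug doses (not always all listed) in √10 steps, by pin tool, on the day after seeding. Nuclei were counted after 5 days, and relative viability is the treated-to-vehicle ratio of nuclei counts. Values are medians of duplicate plates.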

[1] = compound: CC1=CC=C(C=C1)C(=O)CN2C3=C(CCCC3)SC2=N [Pifithrin_alpha] + CS(=O)(=O)CCNCc1ccc(-c2ccc3ncnc(Nc4ccc(OCc5cccc(F)c5)c(Cl)c4)c3c2)o1 [Lapatinib] (partner 2 µM)
Method in brief: as §1

Bemcentinib + Olaparib = compound: Nc1nc(Nc2ccc3c(c2)CC[C@@H](N2CCCC2)CC3)nn1-c1cc2c(nn1)-c1ccccc1CCC2 [Bemcentinib] + O=C(c1cc(Cc2n[nH]c(=O)c3ccccc23)ccc1F)N1CCN(C(=O)C2CC2)CC1 [Olaparib] (partner 8 µM)
Method in brief: as §1

[2] = compound: CC1=CC=C(C=C1)C(=O)CN2C3=C(CCCC3)SC2=N [Pifithrin_alpha] + NC(=O)Nc1cc(-c2cccc(F)c2)sc1C(=O)N[C@H]1CCCNC1 [AZD7762] (partner 0.2 µM)
Method in brief: as §1

Row | Cell Line | relative viability (Bemcentinib + Trametinib; first compound 0.04 µM) | relative viability (Bemcentinib + Trametinib; first compound 0.1265 µM) | relative viability (Bemcentinib + Trametinib; first compound 0.4 µM) | relative viability (Bemcentinib + Trametinib; first compound 1.265 µM) | relative viability (Bemcentinib + Trametinib; first compound 4 µM) | relative viability ([1]; first compound 1 µM) | relative viability ([1]; first compound 3.162 µM) | relative viability ([1]; first compound 10 µM) | relative viability ([1]; first compound 31.62 µM) | relative viability ([1]; first compound 100 µM) | relative viability (Bemcentinib + Olaparib; first compound 0.04 µM) | relative viability (Bemcentinib + Olaparib; first compound 0.1265 µM) | relative viability (Bemcentinib + Olaparib; first compound 0.4 µM) | relative viability (Bemcentinib + Olaparib; first compound 1.265 µM) | relative viability (Bemcentinib + Olaparib; first compound 4 µM) | relative viability ([2]; first compound 1 µM) | relative viability ([2]; first compound 3.162 µM) | relative viability ([2]; first compound 10 µM) | relative viability ([2]; first compound 31.62 µM) | relative viability ([2]; first compound 100 µM)
1 | HARA | 0.769 | 0.83 | 0.69 | 0.67 | 0.96 | 0.675 | 0.625 | 0.759 | 0.589 | 0.478 | 0.778 | 1.17 | 1.14 | 0.929 | 0.76 | 0.3 | 0.329 | 0.219 | 0.23 | 0.209
2 | HCC-15 | 0.389 | 0.365 | 0.44 | 0.368 | 0.42 | 0.636 | 1.05 | 0.734 | 0.666 | 0.845 | 0.7 | 0.712 | 0.771 | 0.655 | 0.748 | 1.28 | 1.27 | 1.03 | 1.1 | 1.3
3 | HCC-44 | 1.11 | 1.13 | 1.06 | 1.18 | 1.18 | 0.932 | 0.965 | 0.791 | 0.641 | 0.763 | 1.04 | 1.04 | 0.981 | 0.974 | 1.02 | 0.91 | 0.977 | 0.985 | 0.869 | 0.888
4 | HCC-78 | 0.735 | 0.746 | 0.936 | 0.809 | 0.801 | 0.432 | 0.77 | 0.693 |  | 0.619 | 0.919 | 0.794 | 0.971 | 0.808 | 0.833 |  | 0.509 | 0.566 | 0.54 | 0.526
5 | HCC-366 | 0.368 | 0.428 | 0.407 | 0.409 | 0.419 | 0.861 | 1.24 | 1.1 |  | 1.06 | 0.421 | 0.35 | 0.415 | 0.387 | 0.353 | 0.23 | 0.183 | 0.183 |  | 0.174
6 | HCC-827 | 0.545 | 0.548 | 0.534 | 0.599 | 0.586 | 0.197 | 0.207 | 0.235 | 0.197 | 0.198 | 0.669 | 0.691 | 0.554 | 0.623 | 0.625 | 0.159 | 0.177 | 0.189 | 0.189 | 0.154
7 | HOP-62 | 0.341 | 0.337 | 0.402 | 0.395 | 0.458 | 0.886 | 1.21 | 0.991 | 0.714 | 1.23 | 0.342 | 0.621 | 0.575 | 0.528 | 0.472 | 1.24 | 0.803 | 0.769 | 0.659 | 0.809
8 | LC-2-ad | 0.946 | 0.963 | 0.952 | 0.98 | 0.962 | 0.986 | 1.03 | 0.935 | 0.576 | 0.759 | 0.719 | 0.676 | 0.767 | 0.711 | 0.655 | 0.969 | 0.849 | 0.705 | 0.6 | 0.642
9 | LCLC-97TM1 | 0.206 | 0.195 | 0.2 | 0.232 | 0.2 |  | 1.17 | 0.79 |  | 1.38 | 0.411 | 0.455 | 0.476 | 0.289 | 0.382 | 0.222 | 0.231 | 0.382 |  | 0.239
10 | LK-2 | 0.798 | 0.908 | 0.629 | 0.795 | 0.885 | 0.893 | 1.18 | 0.969 |  | 1.47 | 0.694 | 0.756 | 0.837 | 0.839 | 0.677 | 0.301 | 0.571 | 0.58 |  | 0.346
11 | LOU-NH91 | 0.807 | 0.792 | 0.849 | 0.822 | 0.789 | 0.576 | 0.604 | 0.633 | 0.492 | 0.493 | 0.886 | 0.848 | 0.942 | 0.927 | 0.937 | 0.625 | 0.755 | 0.683 | 0.589 | 0.604
12 | LU99A | 0.516 | 0.641 | 0.55 | 0.596 | 0.51 | 0.852 | 1.21 | 1.12 |  | 1.18 | 0.27 | 0.259 | 0.244 | 0.259 | 0.286 | 0.359 | 0.459 | 0.341 |  | 0.352
13 | LXF-289 | 0.705 | 0.681 | 0.648 | 0.7 | 0.773 | 0.912 | 0.979 | 0.85 | 0.749 | 0.837 | 1.13 | 1.16 | 1.13 | 1.06 | 1.04 | 1.16 | 1.12 | 1.23 | 1.12 | 1.13
14 | NCI-H23 | 0.363 | 0.432 | 0.353 | 0.429 | 0.466 | 1.26 | 1.13 | 1 | 0.682 | 0.839 | 0.246 | 0.338 | 0.381 | 0.308 | 0.298 | 0.229 | 0.279 | 0.265 | 0.172 | 0.268
15 | NCI-H322M | 0.477 | 0.534 | 0.496 | 0.504 | 0.51 | 0.578 | 0.621 | 0.557 | 0.635 | 0.613 | 0.796 | 0.84 | 0.844 | 0.854 | 0.839 | 0.413 | 0.462 | 0.48 | 0.498 | 0.487
